The test system of the first assay is NCI-H520. The experiment in a line: relative viability (nuclei count vs DMSO), 5 days (fraction); higher = more cells survive. The note with it: first compound 2.53 µM. The procedure, abridged:
(§1)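 Cells from lung cancer lines were seeded into 1536-well plates and, one day later, dosed by pin tool. Treatments were either a single drug or a fixed dose of an anchor drug with five library-drug doses (not always all listed) in √10 steps. After 5 days, nuclei were stained in a one-step fixation (final 0.05% Triton X-100, 1% formaldehyde, 1 ug/ml Hoechst) and counted on 4× images, and relative viability is the treated-to-vehicle nuclei ratio, as the median of duplicate plates.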
`CCCCCCCCCCCC1=C(O)C(=O)C=C(O)C1=O` [Embelin] + O=C(CCCCCCC(=O)Nc1ccccc1)NO [Vorinostat] (partner 1 µM) showed a relative viability of 0.75.

Take `CCCCCCCCCCCC1=C(O)C(=O)C=C(O)C1=O` [Embelin] + O=C(c1cc(Cc2n[nH]c(=O)c3ccccc23)ccc1F)N1CCN(C(=O)C2CC2)CC1 [Olaparib] (partner 8 µM): the relative viability stood at 0.342.

As for `CCCCCCCCCCCC1=C(O)C(=O)C=C(O)C1=O` [Embelin] + Cc1cc(Nc2cc(N3CCN(C)CC3)nc(Sc3ccc(NC(=O)C4CC4)cc3)n2)n[nH]1 [Tozasertib] (partner 0.1 µM), the relative viability stood at 0.467.

Consider `CCCCCCCCCCCC1=C(O)C(=O)C=C(O)C1=O` [Embelin] + Nc1ncn([C@H]2C[C@H](O)[C@@H](CO)O2)c(=O)n1 [Decitabine] (partner 2 µM), for which the relative viability amounted to 0.552.

`CCCCCCCCCCCC1=C(O)C(=O)C=C(O)C1=O` [Embelin] + CC(=O)c1c(C)c2cnc(Nc3ccc(N4CCNCC4)cn3)nc2n(C2CCCC2)c1=O [Palbociclib] (partner 0.5 µM) registered a relative viability of 0.246.

The assay is the same for the next values; noted with them: first compound 8 µM.
`CCCCCCCCCCCC1=C(O)C(=O)C=C(O)C1=O` [Embelin] + O=C(CCCCCCC(=O)Nc1ccccc1)NO [Vorinostat] (partner 1 µM) had a relative viability of 0.573.

`CCCCCCCCCCCC1=C(O)C(=O)C=C(O)C1=O` [Embelin] + O=C(c1cc(Cc2n[nH]c(=O)c3ccccc23)ccc1F)N1CCN(C(=O)C2CC2)CC1 [Olaparib] (partner 8 µM) had a relative viability of 0.352.

As for `CCCCCCCCCCCC1=C(O)C(=O)C=C(O)C1=O` [Embelin] + Cc1cc(Nc2cc(N3CCN(C)CC3)nc(Sc3ccc(NC(=O)C4CC4)cc3)n2)n[nH]1 [Tozasertib] (partner 0.1 µM), the relative viability was found to be 0.376.

Regarding `CCCCCCCCCCCC1=C(O)C(=O)C=C(O)C1=O` [Embelin] + Nc1ncn([C@H]2C[C@H](O)[C@@H](CO)O2)c(=O)n1 [Decitabine] (partner 2 µM), the relative viability was determined as 0.441.

`CCCCCCCCCCCC1=C(O)C(=O)C=C(O)C1=O` [Embelin] + CC(=O)c1c(C)c2cnc(Nc3ccc(N4CCNCC4)cn3)nc2n(C2CCCC2)c1=O [Palbociclib] (partner 0.5 µM) gave a relative viability of 0.214.

The next assay concerns NCI-H522. The assay is described as above. The note with it: first compound 0.08 µM. The procedure, abridged: as §1
As to `CCCCCCCCCCCC1=C(O)C(=O)C=C(O)C1=O` [Embelin] + O=C(CCCCCCC(=O)Nc1ccccc1)NO [Vorinostat] (partner 1 µM), the relative viability is 0.876.

In the case of `CCCCCCCCCCCC1=C(O)C(=O)C=C(O)C1=O` [Embelin] + O=C(c1cc(Cc2n[nH]c(=O)c3ccccc23)ccc1F)N1CCN(C(=O)C2CC2)CC1 [Olaparib] (partner 8 µM), the relative viability came to 0.674.

Take `CCCCCCCCCCCC1=C(O)C(=O)C=C(O)C1=O` [Embelin] + Cc1cc(Nc2cc(N3CCN(C)CC3)nc(Sc3ccc(NC(=O)C4CC4)cc3)n2)n[nH]1 [Tozasertib] (partner 0.1 µM): the relative viability worked out at 0.617.

The molecule `CCCCCCCCCCCC1=C(O)C(=O)C=C(O)C1=O` [Embelin] + Nc1ncn([C@H]2C[C@H](O)[C@@H](CO)O2)c(=O)n1 [Decitabine] (partner 2 µM) came in with a relative viability of 0.647.

In turn, `CCCCCCCCCCCC1=C(O)C(=O)C=C(O)C1=O` [Embelin] + CC(=O)c1c(C)c2cnc(Nc3ccc(N4CCNCC4)cn3)nc2n(C2CCCC2)c1=O [Palbociclib] (partner 0.5 µM) showed a relative viability of 1.09.

Still in this assay, the particulars now being: first compound 0.8 µM.
As for `CCCCCCCCCCCC1=C(O)C(=O)C=C(O)C1=O` [Embelin] + O=C(CCCCCCC(=O)Nc1ccccc1)NO [Vorinostat] (partner 1 µM), the relative viability was determined as 0.906.

`CCCCCCCCCCCC1=C(O)C(=O)C=C(O)C1=O` [Embelin] + O=C(c1cc(Cc2n[nH]c(=O)c3ccccc23)ccc1F)N1CCN(C(=O)C2CC2)CC1 [Olaparib] (partner 8 µM) gave a relative viability of 0.633.

On to `CCCCCCCCCCCC1=C(O)C(=O)C=C(O)C1=O` [Embelin] + Cc1cc(Nc2cc(N3CCN(C)CC3)nc(Sc3ccc(NC(=O)C4CC4)cc3)n2)n[nH]1 [Tozasertib] (partner 0.1 µM), for which the relative viability worked out at 0.577.

For `CCCCCCCCCCCC1=C(O)C(=O)C=C(O)C1=O` [Embelin] + Nc1ncn([C@H]2C[C@H](O)[C@@H](CO)O2)c(=O)n1 [Decitabine] (partner 2 µM), the relative viability was determined as 0.617.

Consider `CCCCCCCCCCCC1=C(O)C(=O)C=C(O)C1=O` [Embelin] + CC(=O)c1c(C)c2cnc(Nc3ccc(N4CCNCC4)cn3)nc2n(C2CCCC2)c1=O [Palbociclib] (partner 0.5 µM), for which the relative viability was determined as 1.21.

The assay is the same for the next values; noted with them: first compound 2.53 µM.
The molecule `CCCCCCCCCCCC1=C(O)C(=O)C=C(O)C1=O` [Embelin] + O=C(CCCCCCC(=O)Nc1ccccc1)NO [Vorinostat] (partner 1 µM) displayed a relative viability of 0.763.

With `CCCCCCCCCCCC1=C(O)C(=O)C=C(O)C1=O` [Embelin] + O=C(c1cc(Cc2n[nH]c(=O)c3ccccc23)ccc1F)N1CCN(C(=O)C2CC2)CC1 [Olaparib] (partner 8 µM), the relative viability was 0.689.

In turn, `CCCCCCCCCCCC1=C(O)C(=O)C=C(O)C1=O` [Embelin] + Cc1cc(Nc2cc(N3CCN(C)CC3)nc(Sc3ccc(NC(=O)C4CC4)cc3)n2)n[nH]1 [Tozasertib] (partner 0.1 µM) displayed a relative viability of 0.513.

With `CCCCCCCCCCCC1=C(O)C(=O)C=C(O)C1=O` [Embelin] + Nc1ncn([C@H]2C[C@H](O)[C@@H](CO)O2)c(=O)n1 [Decitabine] (partner 2 µM), the relative viability came to 0.578.

As for `CCCCCCCCCCCC1=C(O)C(=O)C=C(O)C1=O` [Embelin] + CC(=O)c1c(C)c2cnc(Nc3ccc(N4CCNCC4)cn3)nc2n(C2CCCC2)c1=O [Palbociclib] (partner 0.5 µM), the relative viability was determined as 1.01.

The assay is the same for the next values; noted with them: first compound 8 µM.
Take `CCCCCCCCCCCC1=C(O)C(=O)C=C(O)C1=O` [Embelin] + O=C(CCCCCCC(=O)Nc1ccccc1)NO [Vorinostat] (partner 1 µM): the relative viability was 0.856.

The molecule `CCCCCCCCCCCC1=C(O)C(=O)C=C(O)C1=O` [Embelin] + O=C(c1cc(Cc2n[nH]c(=O)c3ccccc23)ccc1F)N1CCN(C(=O)C2CC2)CC1 [Olaparib] (partner 8 µM) registered a relative viability of 0.945.

With `CCCCCCCCCCCC1=C(O)C(=O)C=C(O)C1=O` [Embelin] + Cc1cc(Nc2cc(N3CCN(C)CC3)nc(Sc3ccc(NC(=O)C4CC4)cc3)n2)n[nH]1 [Tozasertib] (partner 0.1 µM), the relative viability was 0.532.

For `CCCCCCCCCCCC1=C(O)C(=O)C=C(O)C1=O` [Embelin] + Nc1ncn([C@H]2C[C@H](O)[C@@H](CO)O2)c(=O)n1 [Decitabine] (partner 2 µM), the relative viability came out at 0.704.

Consider `CCCCCCCCCCCC1=C(O)C(=O)C=C(O)C1=O` [Embelin] + CC(=O)c1c(C)c2cnc(Nc3ccc(N4CCNCC4)cn3)nc2n(C2CCCC2)c1=O [Palbociclib] (partner 0.5 µM), for which the relative viability came out at 0.983.

The record behind these values is the supplement of paper PMC10307832.
